In patent US20240391882A1 (Mirati Therapeutics, Inc., priority 2023, published 2024):

Legend:
[1] = system: SKBR3 (PI3Kα wild type) cells; experiment: Cell viability (CellTiter-Glo 2.0) in SKBR3 cells; assay type: cell-based; settings: Homo sapiens, SK-BR-3; SKBR3 (PI3Kα wild type) cells, approximately 72 hours, CellTiter-Glo 2.0; read-out: SKBR3 (WT) Viability IC50
Experimental: This Example illustrates that representative compounds of the invention decrease the viability of cells.
The ability of a compound of Formula (I) to decrease the viability of cells was measured using CellTiter-Glo 2.0 (CTG) Luminescent Cell Viability Assay (#G9241) obtained from Promega (Madison, WI).
To prepare assay plates for viability assays, cells were trypsinized, resuspended in fresh media, and viable cells were counted utilizing trypan blue exclusion. T47D, SKBR3, or MKN1 cells were seeded at 1000 cells in 30 μl per well in a solid white flat bottom 384 cell culture plate (Perkin Elmer #6007680) and incubated at 37° C. overnight.
Assay day 1, cells were dosed using an Echo Liquid Handler (Beckman Coulter) with compounds at a 10 μm starting concentration and serially diluted (1:4) for a total of 10 concentrations. Cells were incubated for approximately 72 hours with the compounds (solubilized in DMSO) at 37° C. After 72 hours of treatment, cell plates were equilibrated to room temperature before adding 15 μl of CTG to each well, plates were then covered in aluminum foil to protect from light, incubated at room temperature for 30 minutes on a microtiter plate shaker, and luminescence readings were collected using a CLARIOstar microplate reader (BMG Labtech, Germany). Percent of vehicle control values were plotted as log(inhibitor) vs. response—Variable slope (four parameters) for curve fitting and IC50 values were determined using XLfit.

[2] = system: T47D (PI3Kα H1047R mutant) cells; experiment: Cell viability (CellTiter-Glo 2.0) in T47D cells; assay type: cell-based; settings: Homo sapiens, T47D, 72 h, approximately 72 hours
How it was run: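 IC50 values derive from four-parameter fits of CellTiter-Glo luminescence expressed as percent of vehicle control. Cells (T47D or SKBR3) were plated at 1000/well the day before dosing and incubated about 72 h at 37° C with a 10-point, 1:4 series starting at 10 μm.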

Row | SMILES | IC50 [1] [nM] | IC50 [2] [nM]
1 | Cc1cc([C@@H](C)Nc2ccccc2C(=O)O)c2nc(N3CCC(F)(F)[C@H](C)C3)c(C#N)nc2c1 [Example 79B, 2-(((R)-1-(2-cyano-3-((R)-4,4-difluoro-3-methylpiperidin-1-yl)-7-methylquinoxalin-5-yl)ethyl)amino)benzoic acid] | > 10000 | 176
2 | Cc1cc([C@@H](C)Nc2ccccc2C(=O)O)c2nc(N3CCC(F)(F)[C@@H](C)C3)c(C#N)nc2c1 [Example 79A, 2-(((R)-1-(2-cyano-3-((S)-4,4-difluoro-3-methylpiperidin-1-yl)-7-methylquinoxalin-5-yl)ethyl)amino)benzoic acid] | > 10000 | 252
3 | Cc1cc([C@@H](C)Nc2ccc(Cl)nc2-c2nnn[nH]2)c2nc(N3CCOCC3)c(C#N)nc2c1 [Example 854, (R)-5-(1-((6-chloro-2-(1H-tetrazol-5-yl)pyridin-3-yl)amino)ethyl)-7-methyl-3-morpholinoquinoxaline-2-carbonitrile] | 4380 | 52
4 | Cc1cc([C@@H](C)Nc2ccccc2C#N)c2nc(N3CCOCC3)c(C#N)nc2c1 [Example 853, (R)-5-(1-((2-cyanophenyl)amino)ethyl)-7-methyl-3-morpholinoquinoxaline-2-carbonitrile] | > 10000 | 4340
5 | Cc1cc([C@@H](C)Nc2ccc(Cl)nc2C(=O)O)c2nc(N3CCC(F)(F)[C@@H](C)C3)c(C#N)nc2c1 [Example 78B, 6-chloro-3-(((R)-1-(2-cyano-3-((S)-4,4-difluoro-3-methylpiperidin-1-yl)-7-methylquinoxalin-5-yl)ethyl)amino)picolinic acid] | > 10000 | 84.4
6 | Cc1cc([C@@H](C)Nc2scnc2C(=O)O)c2nc(N3CCC(F)(F)CC3)c(C#N)nc2c1 [Example 39, (R)-5-((1-(2-cyano-3-(4,4-difluoropiperidin-1-yl)-7-methylquinoxalin-5-yl)ethyl)amino)thiazole-4-carboxylic acid] | 6230 | 2680
7 | Cc1cc([C@@H](C)Nc2ccccc2C(=O)O)c2nc(N3CCc4cc(C#N)ccc4C3)c(C#N)nc2c1 [Example 86, (R)-2-((1-(2-cyano-3-(6-cyano-3,4-dihydroisoquinolin-2(1H)-yl)-7-methylquinoxalin-5-yl)ethyl)amino)benzoic acid] | > 10000 | 270
8 | Cc1cc([C@@H](C)Nc2ccc(Cl)nc2C(=O)O)c2nc(NCC3(C)CC3(F)F)c(C#N)nc2c1 (stereo partly drawn) [Example 74, 6-chloro-3-(((1R)-1-(2-cyano-3-(((2,2-difluoro-1-methylcyclopropyl)methyl)amino)-7-methylquinoxalin-5-yl)ethyl)amino)picolinic acid] | > 10000 | 95
9 | Cc1cc([C@@H](C)Nc2ccc(Cl)nc2C(=O)O)c2nc(NC3CC(F)(F)C3)c(C#N)nc2c1 [Example 77, (R)-6-chloro-3-((1-(2-cyano-3-((3,3-difluorocyclobutyl)amino)-7-methylquinoxalin-5-yl)ethyl)amino)picolinic acid] | 8610 | 77
10 | Cc1cc([C@@H](C)Nc2ccc(Cl)nc2C(=O)O)c2nc(N3CC4CC3C(F)(F)C4)c(C#N)nc2c1 (single isomer, unassigned) [Example 11] | > 10000 | 64
11 | CO[C@@H]1CCN(c2nc3c([C@@H](C)Nc4ccc(Cl)nc4C(=O)O)cc(C)cc3nc2C#N)C1 (single isomer, unassigned) [Example 110A] | > 10000 | 298
12 | CNC(=O)c1ccccc1N[C@H](C)c1cc(C)cc2nc(C#N)c(N3CCOCC3)nc12 [Example 856, (R)-2-((1-(2-cyano-7-methyl-3-morpholinoquinoxalin-5-yl)ethyl)amino)-N-methylbenzamide] | 3560 | 3440
13 | Cc1cc([C@@H](C)Nc2ccccc2C(=O)O)c2nc(N3CCc4ccccc4C3)c(C#N)nc2c1 [Example 84, (R)-2-((1-(2-cyano-3-(3,4-dihydroisoquinolin-2(1H)-yl)-7-methylquinoxalin-5-yl)ethyl)amino)benzoic acid] | > 10000 | 343
